T1: recEmTDH (Echinococcus multilocularis, UniProt A0A068Y017)
T1 construct: gene EmuJ_000511900; E. coli BL21; 979 bp insert from metacestode vesicle cDNA
T1 sequence (A0A068Y017 31-362): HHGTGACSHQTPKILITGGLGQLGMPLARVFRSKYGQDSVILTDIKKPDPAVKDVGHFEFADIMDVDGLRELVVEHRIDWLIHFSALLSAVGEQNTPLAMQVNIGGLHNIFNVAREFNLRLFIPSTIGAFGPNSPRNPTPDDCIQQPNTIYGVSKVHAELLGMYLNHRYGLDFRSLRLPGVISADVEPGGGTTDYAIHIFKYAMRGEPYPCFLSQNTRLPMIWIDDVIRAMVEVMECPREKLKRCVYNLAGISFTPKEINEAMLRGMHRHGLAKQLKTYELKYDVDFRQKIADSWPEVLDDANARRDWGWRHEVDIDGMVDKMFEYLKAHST

B1: recEmTDH (Echinococcus multilocularis) (protein)
chain: HHGTGACSHQTPKILITGGLGQLGMPLARVFRSKYGQDSVILTDIKKPDPAVKDVGHFEFADIMDVDGLRELVVEHRIDWLIHFSALLSAVGEQNTPLAMQVNIGGLHNIFNVAREFNLRLFIPSTIGAFGPNSPRNPTPDDCIQQPNTIYGVSKVHAELLGMYLNHRYGLDFRSLRLPGVISADVEPGGGTTDYAIHIFKYAMRGEPYPCFLSQNTRLPMIWIDDVIRAMVEVMECPREKLKRCVYNLAGISFTPKEINEAMLRGMHRHGLAKQLKTYELKYDVDFRQKIADSWPEVLDDANARRDWGWRHEVDIDGMVDKMFEYLKAHST
notes: E. coli BL21; 979 bp insert from metacestode vesicle cDNA

Assays:
recMmTDH [1] = target: T2, recMmTDH (Mus musculus, UniProt Q8K3F7); test: NADH formation, absorbance at […] nm, relative to DMSO control; format: biochemical; details: 20 μM compound; 2 mM L-Thr, 3 mM NAD+; pH 8.4; 37 °C
T2 construct: gene Tdh; predicted mitochondrial transfer peptide removed; E. coli BL21; synthetic gene, 991 bp insert
T2 sequence (Q8K3F7 46-373): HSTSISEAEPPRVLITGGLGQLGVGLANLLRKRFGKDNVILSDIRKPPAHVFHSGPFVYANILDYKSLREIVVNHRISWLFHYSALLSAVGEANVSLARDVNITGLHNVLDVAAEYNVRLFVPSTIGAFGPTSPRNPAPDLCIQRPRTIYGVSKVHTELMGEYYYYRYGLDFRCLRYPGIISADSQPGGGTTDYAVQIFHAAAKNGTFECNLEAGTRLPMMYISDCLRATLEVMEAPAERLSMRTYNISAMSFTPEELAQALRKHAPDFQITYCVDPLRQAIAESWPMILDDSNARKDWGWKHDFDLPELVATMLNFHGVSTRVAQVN

recEmTDH = target: T1, recEmTDH; test: as above; format: biochemical; details: read-out: residual activity at 20 μM
recMmTDH [2] = target: T2, recMmTDH; test: NADH formation, absorbance at […] nm; format: biochemical; details: 0-16 mM L-Thr, 10 mM NAD+; pH 8.4; 37 °C
purified protein [3] = substrate: NC(=O)c1ccc[n+]([C@@H]2O[C@H](COP(=O)(O)OP(=O)(O)OC[C@H]3O[C@@H](n4cnc5c(N)ncnc54)[C@H](O)[C@@H]3O)[C@@H](O)[C@H]2O)c1; test: purified protein; format: biochemical, Echinococcus multilocularis; details: 16 mM L-Thr, 80 mM Tris-HCl pH 8.4, 37 °C, varied: cofactor
purified protein [4] = substrate: C[C@@H](O)[C@H](N)C(=O)O; test: purified protein; format: biochemical, Echinococcus multilocularis; details: 2 mM NAD+, 80 mM Tris-HCl pH 8.4, 37 °C

Row | Molecule | residual activity at 20 μM (recMmTDH [1]) | remaining activity at 20 µM (recEmTDH) [%] | also measured
1 | O=C(NCCCN1CCCC1=O)c1ccc2c(=O)n(-c3cccc(C(F)(F)F)c3)c(=S)[nH]c2c1 [QC5] | All tested compounds, except QC4, inhibited recMmTDH activity |  | 
2 | CN(Cc1ccccc1)C(=O)c1ccc2c(=O)n(-c3cccc(C(F)(F)F)c3)c(=S)[nH]c2c1 [QC6] | All tested compounds, except QC4, inhibited recMmTDH activity |  | 
3 | O=C(O)c1ccc2c(=O)n(-c3cccc(C(F)(F)F)c3)c(=S)[nH]c2c1 [QC7] | All tested compounds, except QC4, inhibited recMmTDH activity |  | 
4 | O=C(NCc1ccccc1)c1ccc2c(=O)n(-c3cccc(C(F)(F)F)c3)c(=S)[nH]c2c1 [QC1] | All tested compounds, except QC4, inhibited recMmTDH activity |  | 
5 | C[n+]1cc2c3c(ccc2c2ccc4cc5c(cc4c21)OCO5)OCO3 [sanguinarine] | All tested compounds, except QC4, inhibited recMmTDH activity | 64 ± 4 | 
6 | C[C@@H](O)[C@H](N)C(=O)O [L-Thr] |  |  | NADH formation, absorbance at 340 nm (recMmTDH [2]): we recombinantly expressed MmTDH (S5 File) and this protein was also enzymatically active
7 | O=c1c(O)c(-c2ccc(O)c(O)c2)oc2cc(O)cc(O)c12 [quercetin] | All tested compounds, except QC4, inhibited recMmTDH activity | 85.5 ± 2.8 | 
8 | O=c1c(O)c(-c2cc(O)c(O)c(O)c2)oc2cc(O)cc(O)c12 [myricetin] | All tested compounds, except QC4, inhibited recMmTDH activity | 74.8 ± 1.7 | 
9 | COc1ccc(NC(=O)c2ccc3c(=O)n(-c4cc(C(F)(F)F)ccc4Cl)c(=S)[nH]c3c2)cc1OC [QC2] | All tested compounds, except QC4, inhibited recMmTDH activity | 81.3 ± 1.8 | 
10 | CCN(CC)C(=S)SSC(=S)N(CC)CC [disulfiram] | All tested compounds, except QC4, inhibited recMmTDH activity | 41.2 ± 0.8 | 
11 | COc1ccccc1CNC(=O)c1ccc2c(=O)n(-c3cccc(C(F)(F)F)c3)c(=S)[nH]c2c1 [QC3] | All tested compounds, except QC4, inhibited recMmTDH activity |  | 
12 | B1 |  |  | Km (purified protein [3]): 0.8 ± 0.01 mM; Km (purified protein [4]): 8.8 ± 0.05 mM
